Data reported in patent US20230266302A1, “SYNTHESIS AND USE OF N-BENZYL SULFONAMIDES” (THE UNIVERSITY OF TULSA, priority 2020, published 2023).

Tests used:
Assay in all cases: ATP level assay (CellTiter-Glo), percent of control
Format in all cases: cell-based
[1] = system: BxPC3 (pancreatic cancer); settings: two hour incubation; for activity at 100 µM: Homo sapiens, BXPC-3, 2 h, compound alone, control DMSO, read-out: POC (percent of control) BxPC3
[2] = system: H293 (kidney cancer); settings: two hour incubation; for activity at 100 µM: 2 h, compound alone, control DMSO, read-out: POC (percent of control) H293
[3] = system: HDF (normal cells); settings: two hour incubation; for activity at 100 µM: 2 h, compound alone, control DMSO, read-out: POC (percent of control) HDF
[4] = system: HeLa (cervical cancer); settings: two hour incubation; for activity at 100 µM: Homo sapiens, HeLa, 2 h, compound alone, control DMSO, read-out: POC (percent of control) HeLa
[5] = system: MCF10A (non-cancerous breast); settings: two hour incubation; for activity at 100 µM: Homo sapiens, MCF-10A, 2 h, compound alone, control DMSO, read-out: POC (percent of control) MCF10A
[6] = system: MCF7 (breast cancer); settings: two hour incubation; for activity at 100 µM: Homo sapiens, MCF7, 2 h, compound alone, control DMSO, read-out: POC (percent of control) MCF7
[7] = system: MDA-MB (breast cancer); settings: two hour incubation; for activity at 100 µM: 2 h, compound alone, control DMSO, read-out: POC (percent of control) MDA-MB
[8] = system: NCI-H196 (lung cancer); settings: two hour incubation; for activity at 100 µM: NCI-H196, 2 h, compound alone, control DMSO, read-out: POC (percent of control) NCI-H196
[9] = system: PC3 (prostate cancer); settings: two hour incubation; for activity at 100 µM: 2 h, compound alone, control DMSO, read-out: POC (percent of control) PC3
[10] = system: SkBr3 (breast cancer); settings: two hour incubation; for activity at 100 µM: Homo sapiens, SK-BR-3, 2 h, compound alone, control DMSO, read-out: POC (percent of control) SkBr3
[11] = system: T47D (breast cancer); settings: two hour incubation; for activity at 100 µM: Homo sapiens, T47D, 2 h, compound alone, control DMSO, read-out: POC (percent of control) T47D
[12] = compound 100 uM + 2DG (about 10-20 mM)
[13] = compound 100 uM + rotenone (approximately 1.25 μM)

SMILES	activity at 100 µM [1] [%]	POC (percent of control) BxPC3 [1, 13]	activity at 100 µM [2] [%]	POC (percent of control) H293 [2, 12]	POC (percent of control) H293 [2, 13]	activity at 100 µM [3] [%]	POC (percent of control) HDF [3, 12]	POC (percent of control) HDF [3, 13]	activity at 100 µM [4] [%]	POC (percent of control) HeLa [4, 12]	POC (percent of control) HeLa [4, 13]	activity at 100 µM [5] [%]	POC (percent of control) MCF10A [5, 12]	POC (percent of control) MCF10A [5, 13]	activity at 100 µM [6] [%]	POC (percent of control) MCF7 [6, 12]	POC (percent of control) MCF7 [6, 13]	activity at 100 µM [7] [%]	POC (percent of control) MDA-MB [7, 12]	POC (percent of control) MDA-MB [7, 13]	also measured
O=S(=O)(NCc1cscn1)c1ccc(Cl)cc1 [Compound 18, 4-chloro-N-(1,3-thiazol-4-ylmethyl)benzenesulfonamide]	100	94.3% of control	67.3	96.3% of control	67.4% of control	96.1	93% of control	95.7% of control	99.5	100% of control	97.3% of control	119	92.2% of control	86.9% of control	110	137.3% of control	82% of control	102	86.1% of control	100% of control	POC (percent of control) BxPC3 [1, 12]: 85.4% of control; activity at 100 µM [8]: 97.4%; POC (percent of control) NCI-H196 [8, 12]: 108.3% of control; POC (percent of control) NCI-H196 [8, 13]: 87.3% of control; activity at 100 µM [9]: 74%; POC (percent of control) PC3 [9, 12]: 94% of control; POC (percent of control) PC3 [9, 13]: 97.2% of control; activity at 100 µM [10]: 112%; POC (percent of control) SkBr3 [10, 12]: 107.2% of control; POC (percent of control) SkBr3 [10, 13]: 96.6% of control; activity at 100 µM [11]: 95.7%; POC (percent of control) T47D [11, 12]: 82.8% of control; POC (percent of control) T47D [11, 13]: 100.6% of control
Cc1ccc(S(=O)(=O)NCc2nccs2)cc1 [Compound 19, 4-methyl-N-(1,3-thiazol-2-ylmethyl)benzenesulfonamide]	96.2	107.2% of control	82.2	87.2% of control	79.1% of control	92.5	98.9% of control	87.3% of control	104	94.8% of control	109.3% of control	83.9	95.8% of control	119.8% of control	134	104% of control	92.1% of control	104	89.5% of control	112% of control	POC (percent of control) BxPC3 [1, 12]: 98.4% of control; activity at 100 µM [8]: 117%; POC (percent of control) NCI-H196 [8, 12]: 107.3% of control; POC (percent of control) NCI-H196 [8, 13]: 94.3% of control; activity at 100 µM [9]: 108%; POC (percent of control) PC3 [9, 12]: 127.1% of control; POC (percent of control) PC3 [9, 13]: 98.9% of control; activity at 100 µM [10]: 119%; POC (percent of control) SkBr3 [10, 12]: 105.9% of control; POC (percent of control) SkBr3 [10, 13]: 108.6% of control; activity at 100 µM [11]: 91.5%; POC (percent of control) T47D [11, 12]: 87.4% of control; POC (percent of control) T47D [11, 13]: 86.7% of control
O=S(=O)(NCc1ccco1)c1ccc(Cl)cc1 [Compound 20, 4-chloro-N-(furan-2-ylmethyl)benzenesulfonamide]	95.8	94.8% of control	104	84.4% of control	69.4% of control	90.9	88.1% of control	103.1% of control	103	91.7% of control	117.2% of control	102	78.1% of control	102.9% of control	138	87.3% of control	124.6% of control	97.4	82.9% of control	98.5% of control	POC (percent of control) BxPC3 [1, 12]: 86.4% of control; activity at 100 µM [8]: 100%; POC (percent of control) NCI-H196 [8, 12]: 90.6% of control; POC (percent of control) NCI-H196 [8, 13]: 102.1% of control; activity at 100 µM [9]: 91.1%; POC (percent of control) PC3 [9, 12]: 83.8% of control; POC (percent of control) PC3 [9, 13]: 100.4% of control; activity at 100 µM [10]: 104%; POC (percent of control) SkBr3 [10, 12]: 96.7% of control; POC (percent of control) SkBr3 [10, 13]: 102.5% of control; activity at 100 µM [11]: 73.9%; POC (percent of control) T47D [11, 12]: 69.7% of control; POC (percent of control) T47D [11, 13]: 101.6% of control
Cc1ccc(S(=O)(=O)NCc2coc(C)n2)cc1 [Compound 21, 4-methyl-N-[(2-methyl-1,3-oxazol-4-yl)methyl]benzenesulfonamide]	112	114.8% of control	115	87.8% of control	87% of control	87.9	97.4% of control	113.6% of control	101	105.8% of control	109.4% of control	108	92.8% of control	120% of control	189	121.1% of control	111% of control	101	100.7% of control	121.5% of control	POC (percent of control) BxPC3 [1, 12]: 106.8% of control; activity at 100 µM [8]: 108%; POC (percent of control) NCI-H196 [8, 12]: 107.4% of control; POC (percent of control) NCI-H196 [8, 13]: 130.5% of control; activity at 100 µM [9]: 93.3%; POC (percent of control) PC3 [9, 12]: 131.7% of control; POC (percent of control) PC3 [9, 13]: 110.9% of control; activity at 100 µM [10]: 102%; POC (percent of control) SkBr3 [10, 12]: 108.5% of control; POC (percent of control) SkBr3 [10, 13]: 106.9% of control; activity at 100 µM [11]: 88.7%; POC (percent of control) T47D [11, 12]: 99.4% of control; POC (percent of control) T47D [11, 13]: 86.4% of control
Cc1ccc(S(=O)(=O)NCc2ccc3ncccc3c2)cc1 [Compound 22, 4-methyl-N-(quinolin-6-ylmethyl)benzenesulfonamide]	99.1	70.8% of control	122	69.9% of control	90.9% of control	89.7	76.3% of control	85.5% of control	101	94.5% of control	105.2% of control	105	70.2% of control	96.9% of control	113	107.1% of control	96.4% of control	96.7	86.5% of control	87.1% of control	activity at 100 µM [8]: 117%; POC (percent of control) NCI-H196 [8, 12]: 94.6% of control; POC (percent of control) NCI-H196 [8, 13]: 94.2% of control; activity at 100 µM [9]: 93%; POC (percent of control) PC3 [9, 12]: 94.5% of control; POC (percent of control) PC3 [9, 13]: 108.2% of control; activity at 100 µM [10]: 106%; POC (percent of control) SkBr3 [10, 12]: 83.5% of control; POC (percent of control) SkBr3 [10, 13]: 93.5% of control; activity at 100 µM [11]: 85.3%; POC (percent of control) T47D [11, 12]: 62.5% of control; POC (percent of control) T47D [11, 13]: 109.3% of control
